Test results as given in paper PMC10917278, “Structural insights into the modulation Of SOD1 aggregation By a fungal metabolite Phialomustin-B: Therapeutic potential in ALS” (PLOS ONE, 2024).

Biological target: T1, SOD1^L42R (Homo sapiens, UniProt P00441, L43R)
T1 construct: His-tag (cleaved yes); made in house; host or cells: E. coli BL21-DE3
Experiment: MST binding assay, site-specific mutant SOD1^L42R
Conditions: PBS buffer, mutant 25 nM, PB 30.5 nM to 250 μM, 25 °C, SEM n = 3, read-out: binding affinity Kd
Protocol: To further validate the binding of PB to SOD1, site-directed mutagenesis was performed for the interacting residues at the binding sites of PB. The point mutations generated on the SOD1 protein are K9F, G10P, L42R, and A123F. The MST assay was carried out on these mutants against PB (Fig 5). The dose-response curve with the highest signal-to-noise ratio, high response amplitude, and lowest error rate was selected for measuring the binding affinity (Kd) value. […] Binding at the electrostatic loop is affected majorly by mutating residues at A123 to phenylalanine and L42 to arginine. […] Taken together, the binding affinities of these mutants confirm the ligand bindings at these sites of SOD1 are specific.
Fig 5 MST interaction analysis of fluorescently labeled SOD1 mutants against PB. The binding of PB to fluorescently Cys-labeled SOD1- variants is quantified in PBS buffer. The concentration of PB varied from 30.5 nM to 250 μM, while the respective mutants were kept constant at 25 nM. MST experiments were conducted at 20% LED excitation and medium MST power at 25 °C. […] Error bars indicate the standard error of the mean, SEM (n = 3). […] The ligand PB is printed only in the titles of panels a-d, so the mutant names are used as the substance labels.
Binding studies were performed for SOD1^WT and the ligands using microscale thermophoresis (MST). […]

T1 sequence (P00441 whole entry L43R): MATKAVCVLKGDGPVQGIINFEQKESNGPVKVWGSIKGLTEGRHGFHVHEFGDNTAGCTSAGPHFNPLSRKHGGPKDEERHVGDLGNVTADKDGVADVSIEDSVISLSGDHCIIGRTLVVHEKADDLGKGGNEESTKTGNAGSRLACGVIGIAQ

- Kd: 225 ± 4.29 µM
Structure (SMILES): CCCC[C@H](C)/C=C(C)/C=C/C(=O)O [PB, (S, 2E, 4E)-4,6-dimethyldeca-2,4-dienoic acid]
